Measurements taken from US7829524B2, “Antimicrobial peptides” (Novozymes Adenium Biotech A/S, priority 2003, dated 2010).
Where no end group is shown, it is not given here.

Assays:
Format in all cases: cell-based
[1] = system: Morganella morganii ATCC 21116
Protocol: (§1) According to the NCCLS guidelines for susceptibility test of novel antimicrobial compounds, we found a broad spectrum of activity of Cat1 (Methods for Dilution Antimicrobial Susceptibility Tests for Bacteria That Grow Aerobically; Approved Standard-Fifth Edition. NCCLS document M7-A5 (ISBN1-56238-394-9)).
(§2) In another campaign, the specific MICs of Cat1 were determined against a variety of microbial strains relevant for wound infections. As recommended in the above-mentioned NCCLS protocol, the strains were grown in cationic adjusted Muller-Hinton Broth. The highest concentration tested was 32 μg/ml.

[2] = system: Acinetobacter baumanii ATCC 49137
Protocol: as §1, §2

[3] = system: Citrobacter freundii ATCC 11811
Protocol: as §1, §2

[4] = system: Bordetella bronchiseptica ATCC 14064
Protocol: as §1, §2

[5] = system: Staphylococcus aureus (ATCC29737); test: Radial diffusion assay (MEC); conditions: susceptible species
Protocol: (§3) A modified version of a previously published protocol has been applied in the detection of antimicrobial activity (Lehrer et al., (1991) Ultra sensitive assays for endogenous antimicrobial polypeptides J Immunol Methods 137: 167-173). Target bacteria (10^6 colony forming units (CFU)) were added to 10 ml of underlay agarose (1% low electro-endosmosis agarose, 0.03% Trypticase soy broth, 10 mM sodium phosphate, pH 7.4, 37 degrees Celsius). Suspension was solidified on an INTEGRID Petri Dish (Becton Dickinson Labware). A 3 mm Gel Puncher was used to make holes in the underlay agarose (Amersham Pharmacia Biotech, Sweden). Samples were added to the holes and incubated at 37 degrees Celsius, 3 hours. An overlay was poured on top and the plate was incubated overnight (LB media, 7.5% Agar). Antimicrobial activity was seen as bacterial clearing zones around the wells. Living cells was counterstained by adding 10 ml, 0.2 mM MTT (3-(4,5-Dimethylthiazol-2-yl)-2,5-diphenyltetrazolium bromide Thiazolyl blue).

[6] = system: Pseudomonas aeroginosa (ATCC27853); test: Radial diffusion assay (MEC); conditions: susceptible species
Protocol: as §3

[7] = system: Bacillus subtilis (ATCC6633); test: Radial diffusion assay (MEC); conditions: susceptible species
Protocol: as §3

[8] = system: Enterococcus faecalis (DSM2570); test: Radial diffusion assay (MEC); conditions: susceptible species
Protocol: as §3

[9] = system: Micrococcus luteus (ATCC9341); test: Radial diffusion assay (MEC); conditions: susceptible species
Protocol: as §3

[10] = system: Salmonella choleraesuis (DSM9220); test: Radial diffusion assay (MEC); conditions: susceptible species
Protocol: as §3

[11] = system: Proteus mirabilis (ATCC7002); test: Radial diffusion assay (MEC); conditions: susceptible species
Protocol: as §3

[12] = system: Bortadella bronchiseptica (ATCC4617); test: Radial diffusion assay (MEC); conditions: susceptible species
Protocol: as §3

[13] = system: Klepsiella pneumoniae (ATCC10031); test: Radial diffusion assay (MEC); conditions: susceptible species
Protocol: as §3

[14] = system: Eschericia coli (ATCC10536); test: Radial diffusion assay (MEC); conditions: susceptible species
Protocol: as §3

[15] = system: Staphylococcus epidermidis (DSM1798); test: Radial diffusion assay (MEC); conditions: susceptible species
Protocol: as §3

[16] = system: Enterococcus hirae (ATCC10541); test: Radial diffusion assay (MEC); conditions: susceptible species
Protocol: as §3

GLLRRLRKKIGKKLKKIGQKIKPIRILVP [SEQ ID NO: 3]
< 64 µg/mL: Minimal Effective Concentration (MEC) [5] | Minimal Effective Concentration (MEC) [6] | Minimal Effective Concentration (MEC) [7] | Minimal Effective Concentration (MEC) [8] | Minimal Effective Concentration (MEC) [9] | Minimal Effective Concentration (MEC) [10] | Minimal Effective Concentration (MEC) [11] | Minimal Effective Concentration (MEC) [12] | Minimal Effective Concentration (MEC) [13] | Minimal Effective Concentration (MEC) [14] | Minimal Effective Concentration (MEC) [15] | Minimal Effective Concentration (MEC) [16]
1.5 µg/mL: MIC [1] | MIC [3]
0.5 µg/mL: MIC [4]
8 µg/mL: MIC [2]
